Results: patent publication US20140350273A1, “PEDIATRIC USES OF CABAZITAXEL” (AVENTIS PHARMA S.A., priority 2012, published 2014)
Like-named read-outs stand apart in the source and are kept apart here.

Tested on: human osteosarcoma DM77
Assay type: in vivo
Conditions: for Tumor Volume Data (Day 21) Median / ΔT/ΔC % / ΔT/ΔC: day 21; for MTTE / T-C: volume endpoint 1400 mm^3
Experimental: In the reported examples supporting this invention, vials of the clinical formulation of cabazitaxel and docetaxel were used. […] The resultant solution contains 10 mg/mL of cabazitaxel. Stock solution of cabazitaxel was then diluted in 0.9% sodium chloride.
This efficacy may be quantified, for example, as changes in tumor volume for each treated (T) and control (C) group, which are calculated for each animal and each day by subtracting the tumor volume on the day of first treatment (staging day) from the tumor volume on the specified observation day. This allows calculating the tumor growth inhibition: ΔT/ΔC=(median delta T/median delta C)×100. Individual tumor volume changes from baseline are thereafter analyzed by a non-parametric two-way ANOVA-TYPE (with factors: group and repeated days) followed by a post-hoc contrasts analysis, with Bonferroni-Holm adjustment for multiplicity, comparing all treated groups to the control group. […] A probability less than 5% (p<0.05) was considered as significant.
Based on the National Cancer Institute (NCl) standards, a ΔT/ΔC≦40% is the minimal level required to declare activity.
This efficacy may also be quantified by the number of tumor regressions observed after therapy. Individual mice reporting a tumor volume ≦50% of the Day 0 measurement for two consecutive measurements over a seven day period were considered partial responders (PR). Individual mice lacking palpable tumors (<4×4 mm^2 for two consecutive measurements over a seven day period) were classified as complete responders (CR); a CR that persisted until study completion was considered a tumor-free survivor (TFS).
Efficacy could also be determined at study completion, using tumor growth delay (T-C) in days, which is calculated using the median time to endpoint (MTTE) value for each treatment (T) group versus control (C). A Log Rank multiple comparison test with Bonferroni-Holm adjustment for multiplicity was applied on individual TTE to compare the treated groups to the control group.
The efficacy of cabazitaxel in comparison with docetaxel on pediatric patient-derived tumor xenografts was determined experimentally in the following manner:
The animals subjected to the experiment are subcutaneously grafted unilaterally with approximately 30 mg of a tumor fragment from low passage pediatric patient-derived tumor xenografts. The animals are implanted with a human patient-derived pediatric tumor xenografted in immuno-compromised mice (Harlan; nu/nu). Several days post tumor implantation, mice are randomized according to their tumor burden to the different groups of treatments and controls. The agents are dosed intravenously at 5.8, 9.3, 15 or 24.2 mg/kg every 4 days for a total of 3 doses (q4d×3) to mice bearing a tumor burden at start of therapy (day 0) ranged from 125 to 250 mm^3.
Beginning Day 0, animals were observed daily and weighed twice weekly using a digital scale; data including individual and mean gram weights (Mean We±SD), mean percent weight change versus Day 0 were recorded for each group. Animal deaths were recorded daily and designated as drug-related (D), technical (T), tumor related (B), or unknown (U) based on weight loss and gross observation; single agent or combination groups reporting a mean >20% for a period of 7 days and/or >10% mortality were considered above the maximum tolerated dose (MTD) for that treatment on the evaluated regimen.
The selected tumor model, DM77, was a low passage patient-derived tumor xenograft derived from an osteosarcoma taken from the lung of a patient. […]

SMILES: CO[C@H]1C(=O)[C@]2(C)[C@@H](OC)C[C@H]3OC[C@@]3(OC(C)=O)[C@H]2[C@H](OC(=O)c2ccccc2)[C@]2(O)C[C@H](OC(=O)[C@H](O)[C@@H](NC(=O)OC(C)(C)C)c3ccccc3)C(C)=C1C2(C)C [Cabazitaxel, 4α-acetoxy-2α-benzoyloxy-5β,20-epoxy-1β-hydroxy-7β,10β-dimethoxy-9-oxo-11-taxen-13α-yl (2R,3S)-3-tert-butoxycarbonyl-amino-2-hydroxy-3-phenylpropionate]
- #CR (5.8 mg/kg i.v./q4dx3): 0/0/0
- #PR (5.8 mg/kg i.v./q4dx3): 0/0/0
- #TFS (5.8 mg/kg i.v./q4dx3): 0/0/0
- Drug Deaths Total (5.8 mg/kg i.v./q4dx3): 0
- Weight Change at Nadir % (5.8 mg/kg i.v./q4dx3): −5%
- Weight Change at Nadir Day (5.8 mg/kg i.v./q4dx3): 11 days
- Tumor Volume Data (Day 21) Median (5.8 mg/kg i.v./q4dx3): 333 mm^3
- ΔT/ΔC % (5.8 mg/kg i.v./q4dx3): 14.1%
- MTTE (5.8 mg/kg i.v./q4dx3): 49 days
- T-C (5.8 mg/kg i.v./q4dx3): 24 days
- ΔT/ΔC (5.8 mg/kg q4d×3 IV): 14.1%
- tumor volume changes from baseline, Median +/− nMAD (5.8 mg/kg, DAY 4): 47 +/− 47
- tumor volume changes from baseline, Median +/− nMAD (5.8 mg/kg, DAY 7): 121 +/− 80
- tumor volume changes from baseline, Median +/− nMAD (5.8 mg/kg, DAY 11): 162 +/− 89
- tumor volume changes from baseline, Median +/− nMAD (5.8 mg/kg, DAY 14): 162 +/− 97
- tumor volume changes from baseline, Median +/− nMAD (5.8 mg/kg, DAY 18): 195 +/− 122
- tumor volume changes from baseline, Median +/− nMAD (5.8 mg/kg, DAY 21): 129 +/− 129
- tumor volume changes from baseline, Median +/− nMAD (5.8 mg/kg, DAY 25): 96 +/− 115
- tumor volume changes from baseline, Median +/− nMAD (5.8 mg/kg, DAY 28): 96 +/− 115
- tumor volume changes from baseline, Median +/− nMAD (5.8 mg/kg, DAY 32): 96 +/− 109
- tumor volume changes from baseline, Median +/− nMAD (5.8 mg/kg, DAY 35): 169 +/− 182
- tumor volume changes from baseline, Median +/− nMAD (5.8 mg/kg, DAY 39): 239 +/− 172.5
- tumor volume changes from baseline, Median +/− nMAD (5.8 mg/kg, DAY 42): 240 +/− 162
- tumor volume changes from baseline, Median +/− nMAD (5.8 mg/kg, DAY 46): 364.5 +/− 226
- tumor volume changes from baseline, Median +/− nMAD (5.8 mg/kg, DAY 49): 402 +/− 254
- tumor volume changes from baseline, Median +/− nMAD (5.8 mg/kg, DAY 53): 706 +/− 516
- tumor volume changes from baseline, Median +/− nMAD (5.8 mg/kg, DAY 56): 878 +/− 602.5
- #CR (9.3 mg/kg i.v./q4dx3): 0
- #PR (9.3 mg/kg i.v./q4dx3): 2
- #TFS (9.3 mg/kg i.v./q4dx3): 0
- Drug Deaths Total (9.3 mg/kg i.v./q4dx3): 0
- Weight Change at Nadir % (9.3 mg/kg i.v./q4dx3): −8%
- Weight Change at Nadir Day (9.3 mg/kg i.v./q4dx3): 11 days
- Tumor Volume Data (Day 21) Median (9.3 mg/kg i.v./q4dx3): 131 mm^3
- ΔT/ΔC % (9.3 mg/kg i.v./q4dx3): 0%
- MTTE (9.3 mg/kg i.v./q4dx3): >60 days
- T-C (9.3 mg/kg i.v./q4dx3): >35 days
- numbers of PR (9.3 mg/kg q4d×3 IV): 2/9
- ΔT/ΔC (9.3 mg/kg q4d×3 IV): 0%
- tumor volume changes from baseline, Median +/− nMAD (9.3 mg/kg, DAY 4): 54 +/− 54
- tumor volume changes from baseline, Median +/− nMAD (9.3 mg/kg, DAY 7): 73 +/− 73
- tumor volume changes from baseline, Median +/− nMAD (9.3 mg/kg, DAY 11): 19 +/− 35
- tumor volume changes from baseline, Median +/− nMAD (9.3 mg/kg, DAY 14): 19 +/− 35
- tumor volume changes from baseline, Median +/− nMAD (9.3 mg/kg, DAY 18): 0 +/− 33
- tumor volume changes from baseline, Median +/− nMAD (9.3 mg/kg, DAY 21): 0 +/− 34
- tumor volume changes from baseline, Median +/− nMAD (9.3 mg/kg, DAY 25): −19 +/− 26
- tumor volume changes from baseline, Median +/− nMAD (9.3 mg/kg, DAY 28): −45 +/− 26
- tumor volume changes from baseline, Median +/− nMAD (9.3 mg/kg, DAY 32): −45 +/− 26
- tumor volume changes from baseline, Median +/− nMAD (9.3 mg/kg, DAY 35): −66 +/− 7
- tumor volume changes from baseline, Median +/− nMAD (9.3 mg/kg, DAY 39): −66 +/− 7
- tumor volume changes from baseline, Median +/− nMAD (9.3 mg/kg, DAY 42): −66 +/− 7
- tumor volume changes from baseline, Median +/− nMAD (9.3 mg/kg, DAY 46): −66 +/− 7
- tumor volume changes from baseline, Median +/− nMAD (9.3 mg/kg, DAY 49): −66 +/− 7
- tumor volume changes from baseline, Median +/− nMAD (9.3 mg/kg, DAY 53): −47 +/− 25
- tumor volume changes from baseline, Median +/− nMAD (9.3 mg/kg, DAY 56): −47 +/− 26
- #CR (15 mg/kg i.v./q4dx3): 0
- #PR (15 mg/kg i.v./q4dx3): 6
- #TFS (15 mg/kg i.v./q4dx3): 0
- Drug Deaths Total (15 mg/kg i.v./q4dx3): 0
- Weight Change at Nadir % (15 mg/kg i.v./q4dx3): −9%
- Weight Change at Nadir Day (15 mg/kg i.v./q4dx3): 11 days
- Tumor Volume Data (Day 21) Median (15 mg/kg i.v./q4dx3): 78 mm^3
- ΔT/ΔC % (15 mg/kg i.v./q4dx3): −9.3%
- MTTE (15 mg/kg i.v./q4dx3): >60 days
- T-C (15 mg/kg i.v./q4dx3): >35 days
- tumor volume changes from baseline, Median +/− nMAD (15 mg/kg, DAY 4): 0 +/− 0 (n = 9)
- tumor volume changes from baseline, Median +/− nMAD (15 mg/kg, DAY 7): 0 +/− 25
- tumor volume changes from baseline, Median +/− nMAD (15 mg/kg, DAY 11): −53 +/− 19
- tumor volume changes from baseline, Median +/− nMAD (15 mg/kg, DAY 14): −53 +/− 27
- tumor volume changes from baseline, Median +/− nMAD (15 mg/kg, DAY 18): −73 +/− 20
- tumor volume changes from baseline, Median +/− nMAD (15 mg/kg, DAY 21): −85 +/− 13
- tumor volume changes from baseline, Median +/− nMAD (15 mg/kg, DAY 25): −85 +/− 13
- tumor volume changes from baseline, Median +/− nMAD (15 mg/kg, DAY 28): −85 +/− 13
- tumor volume changes from baseline, Median +/− nMAD (15 mg/kg, DAY 32): −85 +/− 19
- tumor volume changes from baseline, Median +/− nMAD (15 mg/kg, DAY 35): −85 +/− 19
- tumor volume changes from baseline, Median +/− nMAD (15 mg/kg, DAY 39): −85 +/− 38
- tumor volume changes from baseline, Median +/− nMAD (15 mg/kg, DAY 42): −85 +/− 38
- tumor volume changes from baseline, Median +/− nMAD (15 mg/kg, DAY 46): −85 +/− 38
- tumor volume changes from baseline, Median +/− nMAD (15 mg/kg, DAY 49): −85 +/− 38
- tumor volume changes from baseline, Median +/− nMAD (15 mg/kg, DAY 53): −85 +/− 38
- tumor volume changes from baseline, Median +/− nMAD (15 mg/kg, DAY 56): −85 +/− 38
- #CR (24.2 mg/kg i.v./q4dx3): 1
- #PR (24.2 mg/kg i.v./q4dx3): 5
- #TFS (24.2 mg/kg i.v./q4dx3): 1
- Drug Deaths Total (24.2 mg/kg i.v./q4dx3): 0
- Weight Change at Nadir % (24.2 mg/kg i.v./q4dx3): −15%
- Weight Change at Nadir Day (24.2 mg/kg i.v./q4dx3): 14 days
- Tumor Volume Data (Day 21) Median (24.2 mg/kg i.v./q4dx3): 101.5 mm^3
- ΔT/ΔC % (24.2 mg/kg i.v./q4dx3): −6.9%
- MTTE (24.2 mg/kg i.v./q4dx3): >60 days
- T-C (24.2 mg/kg i.v./q4dx3): >35 days
- tumor volume changes from baseline, Median +/− nMAD (24.2 mg/kg, DAY 4): 22 +/− 22
- tumor volume changes from baseline, Median +/− nMAD (24.2 mg/kg, DAY 7): 0 +/− 9.5
- tumor volume changes from baseline, Median +/− nMAD (24.2 mg/kg, DAY 11): −26.5
- tumor volume changes from baseline, Median +/− nMAD (24.2 mg/kg, DAY 14): −29.5
- tumor volume changes from baseline, Median +/− nMAD (24.2 mg/kg, DAY 18): −61.5 +/− 27
- tumor volume changes from baseline, Median +/− nMAD (24.2 mg/kg, DAY 21): −63 +/− 25.5
- tumor volume changes from baseline, Median +/− nMAD (24.2 mg/kg, DAY 25): −69.5
- tumor volume changes from baseline, Median +/− nMAD (24.2 mg/kg, DAY 28): −60 +/− 28.5
- tumor volume changes from baseline, Median +/− nMAD (24.2 mg/kg, DAY 32): −60 +/− 28.5
- tumor volume changes from baseline, Median +/− nMAD (24.2 mg/kg, DAY 35): −60 +/− 35
- tumor volume changes from baseline, Median +/− nMAD (24.2 mg/kg, DAY 39): −60 +/− 35
- tumor volume changes from baseline, Median +/− nMAD (24.2 mg/kg, DAY 42): −71 +/− 46.5
- tumor volume changes from baseline, Median +/− nMAD (24.2 mg/kg, DAY 46): −71 +/− 46.5
- tumor volume changes from baseline, Median +/− nMAD (24.2 mg/kg, DAY 49): −71 +/− 43
- tumor volume changes from baseline, Median +/− nMAD (24.2 mg/kg, DAY 53): −64.5 +/− 45.5
- tumor volume changes from baseline, Median +/− nMAD (24.2 mg/kg, DAY 56): −64.5 +/− 46.5
- antitumor activity compared with docetaxel (conclusion of example 4, dose equivalent basis): more efficacious than docetaxel at both mid doses
